Legend:
Protein phosphatase 1A = target: T1, Protein phosphatase 1A (Homo sapiens, UniProt P35813); experiment: Inhibition of recombinant human PPM1A using pNPP as substrate preincubated for 15 mins followed by substrate addition measured after 20 mins by absorbance based assay
T1 sequence (P35813 whole entry): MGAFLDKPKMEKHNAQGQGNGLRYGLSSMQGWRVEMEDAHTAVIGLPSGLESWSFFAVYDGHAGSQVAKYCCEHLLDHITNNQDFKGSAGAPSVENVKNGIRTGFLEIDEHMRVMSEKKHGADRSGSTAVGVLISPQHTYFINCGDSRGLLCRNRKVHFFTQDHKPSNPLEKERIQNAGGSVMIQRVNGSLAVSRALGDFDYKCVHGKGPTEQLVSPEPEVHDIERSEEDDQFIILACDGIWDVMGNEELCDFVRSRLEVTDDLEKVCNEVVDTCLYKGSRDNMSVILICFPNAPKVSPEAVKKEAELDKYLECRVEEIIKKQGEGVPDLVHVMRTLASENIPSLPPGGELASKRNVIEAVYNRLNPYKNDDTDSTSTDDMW

THP-1 [1] = experiment: Induction of DNA damage in human THP-1 macrophages assessed as increase in gamma-H2AX at 10 uM incubated for 24 hrs by Western blot analysis; type: toxicity, cell-based; settings: thp-1, 24 h
dsDNA [2] = experiment: Binding affinity to dsDNA (unknown origin) of 5 uM assessed as reduction in fluorescence intensity at 5 uM relative to control; type: nucleic-acid assay; design: scale not given: the % may be the effect or the level left
THP-1 [3] = experiment: Induction of DNA damage in human THP-1 monocytes assessed as increase in gamma-H2AX at 1 uM incubated for 24 hrs by Western blot analysis; type: toxicity, cell-based; settings: thp-1, 24 h
THP-1 [4] = experiment: Cytotoxicity against human THP-1 monocytes assessed as cell viability at 10 uM incubated for 24 hrs by flow cytometry; type: toxicity, cell-based; settings: thp-1, 24 h
dsDNA [5] = experiment: Binding affinity to dsDNA (unknown origin) of 10 uM assessed as reduction in fluorescence intensity at 5 uM relative to control; type: nucleic-acid assay; design: scale not given: the % may be the effect or the level left
[6] = Cytotoxicity against human THP-1 cells by resazurin dye based assay; type: toxicity, cell-based
[7] = Cytotoxicity against human Caco-2 cells by resazurin dye based assay; type: toxicity, cell-based

| Compound | IC50 (Protein phosphatase 1A) [µM] | also measured |
| --- | --- | --- |
| COc1ccc2c(c1)c[n+](CC(C)O)c1ccc(F)cc21 (centres undefined) | > 20 |  |
| COc1ccc2c(c1)c1ccc(OC(F)(F)F)cc1c[n+]2CCO | 3.06 |  |
| OCC[n+]1cc2cc(F)ccc2c2cc(F)ccc21 | > 20 |  |
| CCOc1ccc2c(c1)c1ccc(OC)cc1c[n+]2CCO | > 20 |  |
| COc1ccc2c(c1)c[n+](CCO)c1ccc(Cl)cc21 | > 20 |  |
| COc1ccc2c(c1)c[n+](C(C)CO)c1ccc(F)cc21 (centres undefined) | > 10 |  |
| CCCCOc1ccc2c(c1)c[n+](CCO)c1ccc(F)cc21 | 3.56 |  |
| C[n+]1cc2c3c(ccc2c2ccc4cc5c(cc4c21)OCO5)OCO3 [SANGUINARIUM] |  | Activity (THP-1 [1]): Toxic; Activity (dsDNA [2]): 84%; Activity (THP-1 [3]): Toxic; Activity (THP-1 [4]): Toxic; Activity (dsDNA [5]): 93% |
| COc1ccc2c(c1)c[n+](CCO)c1ccccc21 | > 20 |  |
| COc1ccc2c(c1)c[n+](Cc1cccc(O)c1)c1ccc(F)cc21 | > 20 |  |
| COc1ccc2c(c1)c[n+](CCO)c1ccc(OC)cc21 | 2.6 | CC50 [6]: 47.2 µM; CC50 [7]: > 200 µM |
| OCC[n+]1cc2cc(OC(F)(F)F)ccc2c2cc(F)ccc21 | 1.43 | CC50 [6]: > 200 µM; CC50 [7]: > 200 µM |
| COC(=O)c1cccc(-c2cc3c(cc2OC)c[n+](CCO)c2ccc(F)cc32)c1 | > 20 |  |
| COc1ccc2cc[n+](CCO)cc2c1 | > 20 |  |
| COc1ccc2c(c1)c[n+](CCO)c1ccc(Br)cc21 | 4.51 | CC50 [6]: 68 µM; CC50 [7]: 185 µM |
| COc1cc2c[n+](CCO)c3ccc(F)cc3c2cc1C#Cc1ccccc1 | > 10 |  |
| COc1ccc2c(c1)c[n+](C(CO)CO)c1ccc(F)cc21 | > 20 |  |
| COc1cc2c[n+](CCO)c3ccc(F)cc3c2cc1-c1ccc2c(c1)OCO2 | > 20 |  |
| COc1ccc2c(c1)c[n+](CCCCO)c1ccc(F)cc21 | > 20 |  |

Source: ChEMBL document CHEMBL5523733, “Small Molecule Targeting PPM1A Activates Autophagy for Mycobacterium tuberculosis Host-Directed Therapy” (J Med Chem, 2024)
